The test concerns the target T1, MNK2a (Homo sapiens, UniProt Q9HBH9).
T1 construct: expressed in transfected cells; host or cells: HEK293 cells, transient co-transfection with p-eIF4E and p-MNK2a (FuGene6)
Kind of test: Cell assay of MNK2a: phosphorylation of downstream substrate eIF4E in HEK293 cells transfected with MNK2a and eIF4E (Western blot). Type of test: cell-based. The conditions noted are these: HEK293 cells over-expressing MNK2a and eIF4E; 60 min incubation; phospho-eIF4E band at 28 kDa by densitometry. Here is the method:
Analysis of the Effect of MNK-Inhibitors on Phosphorylation of the DownStream Substrate eIF4E
According to the literature el F4E is a unique substrate for MNK1 and MNK2. The purpose of the analysis was to over-express MNK2a together with eIF4E and subsequently incubate with substances of the invention. This would inhibit the MNK2a activity and thereby the phosphorylation of eIF 4E.
Day 1 HEK293 cells were plated in a T162 cm2-flask.
Day 2 Transient transfection with p-elF4E and p-MNK2a. […]
Protein Determination: • The cell lysates were thawed by putting the plates on ice, transferred to Eppendorf tubes and centrifuged at 1300 g, +4° C., 10 min. • 12.5 μl of the supernatant was transferred directly to the plate for protein determination (->dil 1:2) and the rest of the supernatant to new pre-cold tubes and store in −70° C. until assayed. • Day 5-6 Western Blot analysis of cell lysates, according to standard methods, using a specific phospho-elF4E antibody. • To quantify the effect of the substance on the phosphorylation of eIF4E, developed x-ray film from the Western blot analysis was scanned using a densitometer and Image Gauge 4.0 software. The detected band at 28 kDa with 0 μM substance was set to 100%. The density of the band at 28 kDa with the different concentrations of the substance was then analysed. […]
Background: Immunoblotting shows a protein as a band on a membrane.

T1 sequence (Q9HBH9 whole entry): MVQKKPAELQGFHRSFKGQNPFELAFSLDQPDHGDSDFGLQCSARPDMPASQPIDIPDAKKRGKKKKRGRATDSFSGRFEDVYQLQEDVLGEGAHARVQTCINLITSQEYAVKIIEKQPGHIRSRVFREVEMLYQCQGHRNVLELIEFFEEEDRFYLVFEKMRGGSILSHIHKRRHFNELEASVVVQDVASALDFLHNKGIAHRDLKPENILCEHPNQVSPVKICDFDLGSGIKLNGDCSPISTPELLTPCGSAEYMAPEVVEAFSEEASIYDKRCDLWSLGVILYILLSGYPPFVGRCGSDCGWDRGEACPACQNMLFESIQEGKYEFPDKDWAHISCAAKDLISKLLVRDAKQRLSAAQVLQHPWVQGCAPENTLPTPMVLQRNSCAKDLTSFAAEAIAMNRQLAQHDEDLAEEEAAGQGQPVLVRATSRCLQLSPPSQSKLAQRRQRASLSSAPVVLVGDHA

Broadly, the IC50 is the concentration at which inhibition is half-maximal. `O=C(c1ccc(-c2cncc(-c3ccc(O)cc3)n2)cc1)N1CCOCC1` [Example 77, 4-{6-[4-(morpholin-4-ylcarbonyl)phenyl]pyrazin-2-yl}phenol] displayed an IC50 of 900 nM.
As to `Nc1ncc(-c2ccc(C(=O)N3CCOCC3)cc2F)nc1-c1ccc(O)cc1` [Example 6, 4-{3-amino-6-[2-fluoro-4-(morpholin-4-ylcarbonyl)phenyl]pyrazin-2-yl}phenol], the IC50 stood at 1900 nM.

(Values after patent US20080039450A1, “Compounds” (priority 2006, published 2008).)
